Measured values from patent US8912220B2 (priority 2009, dated 2014).

What follows are compounds tested against human 5-HT2C(VSV) (Homo sapiens, UniProt P28335, I156V/I160V/N158S) (assay: cell-based).
Sequence of human 5-HT2C(VSV) (P28335 33-458 I156V/N158S/I160V limits assumed): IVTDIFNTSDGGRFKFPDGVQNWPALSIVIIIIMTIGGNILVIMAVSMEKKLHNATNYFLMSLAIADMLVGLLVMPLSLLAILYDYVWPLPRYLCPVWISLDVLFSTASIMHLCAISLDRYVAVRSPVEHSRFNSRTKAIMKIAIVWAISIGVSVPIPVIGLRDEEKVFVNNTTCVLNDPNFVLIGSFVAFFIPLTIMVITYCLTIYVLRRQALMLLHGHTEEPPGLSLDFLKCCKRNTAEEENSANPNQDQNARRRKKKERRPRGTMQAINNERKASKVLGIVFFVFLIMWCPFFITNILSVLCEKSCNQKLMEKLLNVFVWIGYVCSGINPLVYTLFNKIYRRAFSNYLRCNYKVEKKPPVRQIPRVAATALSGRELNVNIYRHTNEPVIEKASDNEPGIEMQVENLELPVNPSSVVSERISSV

| SMILES | EC50 |
| --- | --- |
| CCn1cc(CCNCCc2cccc(C(F)(F)F)c2)c2c(O)cc(F)cc21 [26-10, 1-ethyl-6-fluoro-3-(2-(3-(trifluoromethyl)phenethylamino)ethyl)-1H-indol-4-ol] | 1 to 500 nM |
| CCn1cc(CCNCCc2ccccc2)c2c(O)cc(F)cc21 [26-11, 1-ethyl-6-fluoro-3-(2-(phenethylamino)ethyl)-1H-indol-4-ol] | 1 to 500 nM |
| CCn1cc(CCN(C)C)c2c(OC)c(CCCO)cc(F)c21 [27-3, 3-(3-(2-(dimethylamino)ethyl)-1-ethyl-7-fluoro-4-methoxy-1H-indol-5-yl)propan-1-ol] | 1 to 500 nM |
| CCn1cc(CCN(C)C)c2c(OC)c(CCCN)cc(F)c21 [28-4, 3-(3-(2-(dimethylamino)ethyl)-1-ethyl-7-fluoro-4-methoxy-1H-indol-5-yl)propan-1-amine] | 1 to 500 nM |
| CCn1cc(CCN(C)C)c2c(OC)c(CCc3nc4ccccc4[nH]3)cc(F)c21 [29-4, 2-(5-(2-(1H-benzo[d]imidazol-2-yl)ethyl)-1-ethyl-7-fluoro-4-methoxy-1H-indol-3-yl)-N,N-dimethylethanamine] | 1 to 500 nM |
| CCOc1c(F)ccc2c1c(CCNCc1ccccc1)cn2C [30-15, N-benzyl-2-(4-ethoxy-5-fluoro-1-methyl-1H-indol-3-yl)ethanamine] | 1 to 500 nM |
| CCOc1c(F)ccc2c1c(CCNC1Cc3ccccc3C1)cn2C [30-16, N-(2-(4-ethoxy-5-fluoro-1-methyl-1H-indol-3-yl)ethyl)-2,3-dihydro-1H-inden-2-amine] | 1 to 500 nM |
| CCOc1c(F)ccc2c1c(CCNCc1ccccc1Cl)cn2C [30-17, N-(2-chlorobenzyl)-2-(4-ethoxy-5-fluoro-1-methyl-1H-indol-3-yl)ethanamine] | 1 to 500 nM |
| CCOc1c(F)ccc2c1c(CCNCc1ccc3c(c1)OCO3)cn2C [30-18, N-(benzo[d][1,3]dioxol-5-ylmethyl)-2-(4-ethoxy-5-fluoro-1-methyl-1H-indol-3-yl)ethanamine] | 1 to 500 nM |
| CCOc1c(F)ccc2c1c(CCNC1CCc3ccccc31)cn2C (centres unmarked) [30-19, N-(2-(4-ethoxy-5-fluoro-1-methyl-1H-indol-3-yl)ethyl)-2,3-dihydro-1H-inden-1-amine] | 1 to 500 nM |
| CCOc1c(F)ccc2c1c(CCNCc1cccc(C)c1)cn2C [30-20, 2-(4-ethoxy-5-fluoro-1-methyl-1H-indol-3-yl)-N-(3-methylbenzyl)ethanamine] | 1 to 500 nM |
| CCOc1c(F)ccc2c1c(CCNCc1ccccc1C(F)(F)F)cn2C [30-21, 2-(4-ethoxy-5-fluoro-1-methyl-1H-indol-3-yl)-N-(2-(trifluoromethyl)benzyl)ethanamine] | 1 to 500 nM |
| CCOc1c(F)ccc2c1c(CCNCc1cccc(C(F)(F)F)c1)cn2C [30-22, 2-(4-ethoxy-5-fluoro-1-methyl-1H-indol-3-yl)-N-(3-(trifluoromethyl)benzyl)ethanamine] | 1 to 500 nM |
| CCOc1c(F)ccc2c1c(CCN1CCOCC1)cn2C [30-23, 4-(2-(4-ethoxy-5-fluoro-1-methyl-1H-indol-3-yl)ethyl)morpholine] | 500 to 10000 nM |
| CCOc1c(F)ccc2c1c(CCN1CCCC1CO)cn2C (centres unmarked) [30-24, (1-(2-(4-ethoxy-5-fluoro-1-methyl-1H-indol-3-yl)ethyl)pyrrolidin-2-yl)methanol] | 500 to 10000 nM |
| CCOc1c(F)ccc2c1c(CCNCCc1ccccc1)cn2C [30-25, 2-(4-ethoxy-5-fluoro-1-methyl-1H-indol-3-yl)-N-phenethylethanamine] | 1 to 500 nM |
| CCOc1c(F)ccc2c1c(CCNCCc1ccc3c(c1)OCO3)cn2C [30-26, 2-(benzo[d][1,3]dioxol-5-yl)-N-(2-(4-ethoxy-5-fluoro-1-methyl-1H-indol-3-yl)ethyl)ethanamine] | 1 to 500 nM |
| CCOc1c(F)ccc2c1c(CCNCCc1ccccn1)cn2C [30-27, 2-(4-ethoxy-5-fluoro-1-methyl-1H-indol-3-yl)-N-(2-(pyridin-2-yl)ethyl)ethanamine] | 1 to 500 nM |
| CCOc1c(F)ccc2c1c(CCNCc1cccs1)cn2C [30-28, 2-(4-ethoxy-5-fluoro-1-methyl-1H-indol-3-yl)-N-(thiophen-2-ylmethyl)ethanamine] | 1 to 500 nM |
| CCOc1c(F)ccc2c1c(CCN1CCCC1)cn2C [30-29, 4-ethoxy-5-fluoro-1-methyl-3-(2-(pyrrolidin-1-yl)ethyl)-1H-indole] | 1 to 500 nM |
| CCn1cc(CCN2Cc3ccccc3C2)c2c(OCc3ccccc3)cc(F)cc21 [31-3, 4-(benzyloxy)-1-ethyl-6-fluoro-3-(2-(isoindolin-2-yl)ethyl)-1H-indole] | 500 to 10000 nM |
| CCn1cc(CCN2Cc3ccccc3C2)c2c(O)cc(F)cc21 [31-4, 1-ethyl-6-fluoro-3-(2-(isoindolin-2-yl)ethyl)-1H-indol-4-ol] | 500 to 10000 nM |
| CCn1cc(CCN(C)Cc2ccccc2)c2c(OCc3ccccc3)cc(F)cc21 [31-6, N-benzyl-2-(4-(benzyloxy)-1-ethyl-6-fluoro-1H-indol-3-yl)-N-methylethanamine] | 1 to 500 nM |
| CCn1cc(CCN2C[C@@H]3C[C@H]2CN3Cc2ccccc2)c2c(O)cc(F)cc21 [31-7, 3-(2-((1S,4S)-5-benzyl-2,5-diazabicyclo[2.2.1]heptan-2-yl)ethyl)-1-ethyl-6-fluoro-1H-indol-4-ol] | 500 to 10000 nM |

| SMILES | EC50 |
| --- | --- |
| CCn1cc(CCNCc2cccc(C(F)(F)F)c2)c2c(OCc3ccccc3)cc(F)cc21 [31-8, 2-(4-(benzyloxy)-1-ethyl-6-fluoro-1H-indol-3-yl)-N-(3-(trifluoromethyl)benzyl)ethanamine] | 500 to 10000 nM |
| CCn1cc(CCNCc2cccc(Cl)c2)c2c(OCc3ccccc3)cc(F)cc21 [31-9, 2-(4-(benzyloxy)-1-ethyl-6-fluoro-1H-indol-3-yl)-N-(3-chlorobenzyl)ethanamine] | 500 to 10000 nM |
| CCn1cc(CCNC(c2ccccc2)c2ccccc2)c2c(O)cc(F)cc21 [31-10, 3-(2-(benzhydrylamino)ethyl)-1-ethyl-6-fluoro-1H-indol-4-ol] | 1 to 500 nM |
| CCn1cc(CCNCc2cccc(Cl)c2)c2c(O)cc(F)cc21 [31-11, 3-(2-(3-chlorobenzylamino)ethyl)-1-ethyl-6-fluoro-1H-indol-4-ol] | 1 to 500 nM |
| CCn1cc(CCNCc2cccc(C(F)(F)F)c2)c2c(O)cc(F)cc21 [31-12, 1-ethyl-6-fluoro-3-(2-(3-(trifluoromethyl)benzylamino)ethyl)-1H-indol-4-ol] | 1 to 500 nM |
| CCn1cc(CCNCCc2cccc(C(F)(F)F)c2)c2c(OCc3ccccc3)cc(F)cc21 [31-13, 2-(4-(benzyloxy)-1-ethyl-6-fluoro-1H-indol-3-yl)-N-(3-(trifluoromethyl)phenethyl)ethanamine] | 1 to 500 nM |
| CCn1cc(CCN(C)C)c2c(Oc3ccccc3)cc(F)cc21 [32-2, 2-(1-ethyl-6-fluoro-4-phenoxy-1H-indol-3-yl)-N,N-dimethylethanamine] | 500 to 10000 nM |
| CNCCc1cn(C)c2ccc(F)c(OCc3cccc(Cl)c3)c12 [33-8, 2-(4-(3-chlorobenzyloxy)-5-fluoro-1-methyl-1H-indol-3-yl)-N-methylethanamine] | 1 to 500 nM |
| CNCCc1cn(C)c2ccc(F)c(OCc3cccc4cccnc34)c12 [33-13, 2-(5-fluoro-1-methyl-4-(quinolin-8-ylmethoxy)-1H-indol-3-yl)-N-methylethanamine] | 1 to 500 nM |
| CNCCc1cn(C)c2ccc(F)c(OCCOc3ccccc3)c12 [33-14, 2-(5-fluoro-1-methyl-4-(2-phenoxyethoxy)-1H-indol-3-yl)-N-methylethanamine] | 1 to 500 nM |
| CCCn1cc(CCNC)c2c(OCc3ccc(F)cc3)c(F)ccc21 [33-15, 2-(5-fluoro-4-(4-fluorobenzyloxy)-1-propyl-1H-indol-3-yl)-N-methylethanamine] | 1 to 500 nM |
| CCCn1cc(CCNC)c2c(OCc3ccc(C)cc3)c(F)ccc21 [33-16, 2-(5-fluoro-4-(4-methylbenzyloxy)-1-propyl-1H-indol-3-yl)-N-methylethanamine] | 1 to 500 nM |
| CNCCc1cn(C)c2ccc(F)c(OCCc3ccccc3C)c12 [33-17, 2-(5-fluoro-1-methyl-4-(2-methylphenethoxy)-1H-indol-3-yl)-N-methylethanamine] | 1 to 500 nM |
| CNCCc1cn(C)c2ccc(F)c(OCCc3ccccc3Cl)c12 [33-19, 2-(4-(2-chlorophenethoxy)-5-fluoro-1-methyl-1H-indol-3-yl)-N-methylethanamine] | 500 to 10000 nM |
| CNCCc1cn(C)c2ccc(F)c(OCc3ccc(Cl)cc3)c12 [33-20, 2-(4-(4-chlorobenzyloxy)-5-fluoro-1-methyl-1H-indol-3-yl)-N-methylethanamine] | 1 to 500 nM |
| CNCCc1cn(C)c2ccc(F)c(OCc3cccc(C(F)(F)F)c3)c12 [33-21, 2-(5-fluoro-1-methyl-4-(3-(trifluoromethyl)benzyloxy)-1H-indol-3-yl)-N-methylethanamine] | 1 to 500 nM |
| CNCCc1cn(C)c2ccc(F)c(OCc3ccccc3C)c12 [33-22, 2-(5-fluoro-1-methyl-4-(2-methylbenzyloxy)-1H-indol-3-yl)-N-methylethanamine] | 1 to 500 nM |
| CNCCc1cn(C)c2ccc(F)c(OCc3ccccc3Cl)c12 [33-23, 2-(4-(2-chlorobenzyloxy)-5-fluoro-1-methyl-1H-indol-3-yl)-N-methylethanamine] | 1 to 500 nM |
| CNCCc1cn(C)c2ccc(F)c(OCc3ccccc3F)c12 [33-24, 2-(5-fluoro-4-(2-fluorobenzyloxy)-1-methyl-1H-indol-3-yl)-N-methylethanamine] | 1 to 500 nM |
| CNCCc1cn(C)c2ccc(F)c(OCCc3ccc(OC)cc3)c12 [33-25, 2-(5-fluoro-4-(4-methoxyphenethoxy)-1-methyl-1H-indol-3-yl)-N-methylethanamine] | 1 to 500 nM |
| CNCCc1cn(C)c2ccc(F)c(OCCc3ccccc3)c12 [33-26, 2-(5-fluoro-1-methyl-4-phenethoxy-1H-indol-3-yl)-N-methylethanamine] | 1 to 500 nM |
| CNCCc1cn(C)c2ccc(F)c(OCc3ccc(C)cc3)c12 [33-27, 2-(5-fluoro-1-methyl-4-(4-methylbenzyloxy)-1H-indol-3-yl)-N-methylethanamine] | 1 to 500 nM |
| CNCCc1cn(C)c2ccc(F)c(OCCc3ccc(F)cc3)c12 [33-28, 2-(5-fluoro-4-(4-fluorophenethoxy)-1-methyl-1H-indol-3-yl)-N-methylethanamine] | 1 to 500 nM |
